Earlier results in patent publication EP2374448A1, “Oral film formulation” (Labtec GmbH, priority 2010, dated 2011).
Read-outs that look alike come from different tables or passages of the source.

[1] = oral administration, overall range

Row | Tmax after oral administration [1] | Compound | also measured
1 | 0.5 - 4 (preferably 1.0 - 3.0) h | CN[C@@H]1CCc2[nH]c3ccc(C(N)=O)cc3c2C1 [Frovatriptan, (+)-(R)-3-methylamino-6-carboxamido-1,2,3,4-tetrahydrocarbazole] | –
2 | – | 4-(5-Methoxy-4-pyrimidinyl)-1-[3-[5-[[(methylamino)-sulfonyl]methyl]-1H-indole-3-yl]propyl]piperazine [Avitriptan] | Tmax after oral administration (in vivo, po): 0.25 - 1 (preferably 0.5) h
3 | – | N-methyl-3-(1-methyl-4-piperidinyl)-1H-indole-5-ethanesulfonamide [Naratriptan] | Tmax after oral administration (in vivo, po): 1.5 - 4.5 (preferably 2.0 - 4.0) h
4 | 1.5 - 3 (preferably 2 - 2.5) h | CNS(=O)(=O)Cc1ccc2[nH]cc(CCN(C)C)c2c1 [Sumatriptan, 3-[2-(dimethylamino)ethyl]-N-methyl-1H-indole-5-methanesulfonamide] | –
5 | 1.0 - 3 (preferably 1.5 - 2.0) h | CN1CCC[C@@H]1Cc1c[nH]c2ccc(CCS(=O)(=O)c3ccccc3)cc12 [Eletriptan, (R)-3-[(I-Methyl-2-pyrrolidinyl)methyl]-5-[2-(phenylsulfonyl)ethyl]-1H-indole] | –
6 | 1 to 4 h | CN(C)CCc1c[nH]c2ccc(C[C@H]3COC(=O)N3)cc12 [zolmitriptan, (S)-(4)-[[3-[2-(dimethylamino)ethyl]-1H-indole-5yl]methyl]-2-oxazolidinone] | Tmax after oral administration (oral administration, during attack): 2.5 to 3 h; Tmax after oral administration (oral administration, migraine free period): 1 to 2 h
7 | 0.5 - 3 (preferably 1.0 - 2.5) h | CN(C)CCc1c[nH]c2ccc(Cn3cncn3)cc12 [Rizatriptan, N,N-dimethyl-5-(IH-1,2,4-triazol-l-ylmethyl)-1H-indole-3-ethanamine] | –
8 | 0.5 - 4 (preferably 1.0 - 3.0) h | CN(C)CCc1c[nH]c2ccc(CS(=O)(=O)N3CCCC3)cc12 [Almotriptan, I-[[[3-[2-(dimethylamino)ethyl]-1H-indole-5-yl]methyl]sulfonyl]pyrrolidine] | –
